Reference: article PMC11672547, “Combination of Coevolutionary Information and Supervised Learning Enables Generation of Cyclic Peptide Inhibitors with Enhanced Potency from a Small Data Set” (ACS Central Science, 2024)
Numbered stars: 1 amine (or outer) side, 2 acyl side, 3 side chain; on linkers, the order of the positions; unused ones are H or OH. Bridge positions count the residues as written; N and C are the ends. Peptide text beside a SMILES is read from it. TBMB = c1c(C[*:1])cc(C[*:3])cc1C[*:2]

Target: T1, human urokinase-type plasminogen activator (huPA) (Homo sapiens, UniProt P00749)
T1 construct: (UPA-LMW, Molecular Innovations, Novi, MI, USA) 1.5 nM; purchased Molecular Innovations UPA-LMW
Assay: huPA inhibition, fluorogenic enzyme activity assay (Z-Gly-Gly-Arg-AMC), Ki by Cheng-Prusoff
Format: biochemical
Details: 25 °C, pH 7.4, substrate 50 μM, mean ± S.E. of at least three measurements, read-out: Ki
Experimental: bicyclic peptides. The activity assay was performed by incubating […] huPA with 50 μM fluorogenic substrate Z-Gly-Gly-Arg-AMC (50 μM; Bachem, Bubendorf, Switzerland) and […]
NaCl, 10 mM MgCl2, 1mM CaCl2, 0.1% w/v BSA, 0.01% v/v Triton-X100 and 5% v/v DMSO.
The measurements were performed on a Tecan microplate reader (Tecan infinite 200 pro, Tecan Trading AG, Switzerland) using black microfluor 96-well plate Nunc MicroWell, (Thermo Fisher Scientific, Dreieich, Germany) The enzymatic reactions were performed at 25 °C for 30 min, under shacking with an excitation wavelength of 355 nm and an emission recording at 460 nm. The initial velocities were monitored as changes in fluorescence intensity. The sigmoidal curves were fitted to the data using the following non-linear regression equation for the inhibitory dose-response curves with variable slope (2): […]
where x is the peptide concentration, y is the residual percentage of protease activity and p is the hill slope. Half maximum inhibitory concentration (IC50) values were derived from the fitted curves from GraphPad Prism 8 8.0.0. software (GraphPad software, Inc., San Diego, California). The final Ki was subsequently determined using the Cheng-Prusoff equation (3): […]
where Km (115 μM) is the Michaelis constant for the hydrolysis of Z-Gly-Gly-Arg-AMC catalysed by huPA which has been determined by standard Michaelis-Menten equation.
Values were determined using either OriginPro 8G software (OriginLab Corporation, Northamppton, MA, USA) or GraphPad Prism 8.0.0. software (GraphPad software, Inc., San […]
Recombinant production of the catalytic domain of human urokinase-type […]
The low molecular weight (LMW) human urokinase-type plasminogen activator (huPA) comprising the truncated 23 amino acid peptide fragment of chain A (Lys136-Lys158 in […]

| Compound | Ki |
| --- | --- |
| CC(C)[C@@H]1NC(=O)[C@H](Cc2ccc(O)cc2)NC(=O)[C@H](CCCNC(=N)N)NC(=O)[C@H](CO)NC(=O)[C@@H](NC(=O)[C@H](C)N)CSCc2cc3cc(c2)CSC[C@@H](C(=O)NCC(N)=O)NC(=O)[C@@H]2CCCN2C(=O)CNC(=O)CNC(=O)[C@H](CCCNC(=N)N)NC(=O)CNC(=O)[C@H](CCCNC(=N)N)NC(=O)[C@H](CSC3)NC(=O)[C@H](CC(=O)O)NC(=O)[C@H](C(C)C)NC1=O [UK968] (H-ACSRYVVDCRGRGGPCG-NH2; linker 2-9-16 via TBMB) | 5.5 ± 0.4 nM |
| CC(C)[C@@H]1NC(=O)[C@H](Cc2ccc(O)cc2)NC(=O)[C@H](CCCNC(=N)N)NC(=O)[C@H](CC(=O)O)NC(=O)[C@@H](NC(=O)[C@H](C)N)CSCc2cc3cc(c2)CSC[C@@H](C(=O)NCC(N)=O)NC(=O)[C@@H]2CCCN2C(=O)CNC(=O)CNC(=O)[C@H](CCCNC(=N)N)NC(=O)CNC(=O)[C@H](CCCNC(=N)N)NC(=O)[C@H](CSC3)NC(=O)[C@H](CC(=O)O)NC(=O)[C@H](C(C)C)NC1=O [UK969] (H-ACDRYVVDCRGRGGPCG-NH2; linker 2-9-16 via TBMB) | 5.3 ± 0.2 nM |
| CC(C)[C@@H]1NC(=O)[C@H](Cc2c[nH]c3ccccc23)NC(=O)[C@H](CCCNC(=N)N)NC(=O)[C@H](CO)NC(=O)[C@@H](NC(=O)[C@H](C)N)CSCc2cc3cc(c2)CSC[C@@H](C(=O)NCC(N)=O)NC(=O)[C@@H]2CCCN2C(=O)CNC(=O)CNC(=O)[C@H](CCCNC(=N)N)NC(=O)CNC(=O)[C@H](CCCNC(=N)N)NC(=O)[C@H](CSC3)NC(=O)[C@H](CC(=O)O)NC(=O)[C@H]([C@@H](C)O)NC1=O [UK972] (H-ACSRWVTDCRGRGGPCG-NH2; linker 2-9-16 via TBMB) | 14.8 nM |
| CC(C)[C@@H]1NC(=O)[C@H](Cc2ccccc2)NC(=O)[C@H](CCCNC(=N)N)NC(=O)[C@H](CO)NC(=O)[C@@H](NC(=O)[C@H](C)N)CSCc2cc3cc(c2)CSC[C@@H](C(=O)NCC(N)=O)NC(=O)[C@@H]2CCCN2C(=O)CNC(=O)CNC(=O)[C@H](CCCNC(=N)N)NC(=O)CNC(=O)[C@H](CCCNC(=N)N)NC(=O)[C@H](CSC3)NC(=O)[C@H](CC(=O)O)NC(=O)[C@H]([C@@H](C)O)NC1=O [UK973] (H-ACSRFVTDCRGRGGPCG-NH2; linker 2-9-16 via TBMB) | 15.3 nM |
| CC(C)[C@@H]1NC(=O)CNC(=O)[C@@H]2CSCc3cc(cc(c3)CSC[C@@H](C(=O)NCC(N)=O)NC(=O)[C@H](CO)NC(=O)CNC(=O)[C@@H]3CCCN3C(=O)[C@H](CC(=O)O)NC1=O)CSC[C@H](NC(=O)[C@H](C)N)C(=O)N[C@@H](CC(N)=O)C(=O)N[C@@H](CO)C(=O)N[C@@H](CCCCN)C(=O)N[C@@H](Cc1ccccc1)C(=O)N[C@@H](CO)C(=O)NCC(=O)N2 [UK974] (H-ACNSKFSGCGVDPGSCG-NH2; linker 2-9-16 via TBMB) | 363 nM |
| CC(C)[C@@H]1NC(=O)CNC(=O)[C@@H]2CSCc3cc(cc(c3)CSC[C@@H](C(=O)NCC(N)=O)NC(=O)[C@H](CC(=O)O)NC(=O)CNC(=O)[C@@H]3CCCN3C(=O)[C@H](CC(=O)O)NC1=O)CSC[C@H](NC(=O)[C@H](C)N)C(=O)N[C@@H](CC(N)=O)C(=O)N[C@@H](CO)C(=O)N[C@@H](CCCCN)C(=O)N[C@@H](Cc1ccccc1)C(=O)N[C@@H](CO)C(=O)NCC(=O)N2 [UK975] (H-ACNSKFSGCGVDPGDCG-NH2; linker 2-9-16 via TBMB) | 874 nM |
| CC(C)[C@@H]1NC(=O)CNC(=O)[C@@H]2CSCc3cc(cc(c3)CSC[C@@H](C(=O)NCC(N)=O)NC(=O)[C@H](CC(=O)O)NC(=O)[C@H](CO)NC(=O)[C@@H]3CCCN3C(=O)[C@H](CC(=O)O)NC1=O)CSC[C@H](NC(=O)[C@H](C)N)C(=O)N[C@@H](CC(N)=O)C(=O)N[C@@H](CO)C(=O)N[C@@H](CCCCN)C(=O)N[C@@H](Cc1ccccc1)C(=O)N[C@@H](CO)C(=O)NCC(=O)N2 [UK976] (H-ACNSKFSGCGVDPSDCG-NH2; linker 2-9-16 via TBMB) | 119 ± 0.9 nM |
| CC(C)[C@@H]1NC(=O)CNC(=O)[C@@H]2CSCc3cc(cc(c3)CSC[C@@H](C(=O)NCC(N)=O)NC(=O)[C@H](CCC(=O)O)NC(=O)CNC(=O)[C@@H]3CCCN3C(=O)[C@H](CC(=O)O)NC1=O)CSC[C@H](NC(=O)[C@H](C)N)C(=O)N[C@@H](CC(N)=O)C(=O)N[C@@H](CO)C(=O)N[C@@H](CCCCN)C(=O)N[C@@H](Cc1ccccc1)C(=O)N[C@@H](CO)C(=O)NCC(=O)N2 [UK977] (H-ACNSKFSGCGVDPGECG-NH2; linker 2-9-16 via TBMB) | 157 ± 1.1 nM |
| CC(C)[C@@H]1NC(=O)CNC(=O)[C@@H]2CSCc3cc(cc(c3)CSC[C@@H](C(=O)NCC(N)=O)NC(=O)[C@H](CCC(=O)O)NC(=O)[C@H](CO)NC(=O)[C@@H]3CCCN3C(=O)[C@H](CC(=O)O)NC1=O)CSC[C@H](NC(=O)[C@H](C)N)C(=O)N[C@@H](CC(N)=O)C(=O)N[C@@H](CO)C(=O)N[C@@H](CCCCN)C(=O)N[C@@H](Cc1ccccc1)C(=O)N[C@@H](CO)C(=O)NCC(=O)N2 [UK978] (H-ACNSKFSGCGVDPSECG-NH2; linker 2-9-16 via TBMB) | 72 ± 0.7 nM |

Target: T2, murine uPA (muPA) (Mus musculus, UniProt P06869)
T2 construct: mouse uPA (MUPA-LMW,; purchased Molecular Innovations MUPA-LMW
Assay: Specificity determination, residual protease activity (fluorogenic substrate)
Format: biochemical
Details: 25 °C, pH 7.4, Z-Gly-Gly-Arg-AMC 50 μM
Experimental: 5% v/v DMSO. Final concentrations of serine proteases were the following: human uPA (UPA-LMW, Molecular Innovations, Novi, MI, USA) 1.5 nM, mouse uPA (MUPA-LMW, Molecular Innovations, Novi, MI, USA) 12 nM, human tPA (HTPATC; Molecular Innovations, Novi, MI, USA) 7.5 nM, mouse tPA (MTPA, Molecular Innovations, Novi, MI, USA) 6 nM, human trypsin (HTRYP, Molecular Innovations, Novi, MI, USA) 0.05 nM, human plasmin (HPLM, Molecular Innovations, Novi, MI, USA) 1.5 nM, human plasma kallikrein (IHPKA, Innovative Research, Novi, MI, USA) 0.5 nM, human thrombin (IHT, Innovative Research, Novi, MI, USA) 10 nM, and human factor XIIa (IHFXIIa, Innovative Research, Novi, MI, USA) 6 nM. Two-fold dilutions of UK970 bicyclic peptide inhibitor were prepared ranging from 1 mM to 125 nM for all the proteases. For human uPA an extra two-fold UK970 inhibitor dilution experiment was performed by using inhibitor concentrations ranging from 2000 nM to 0.12 nM. For the determination of the Ki inhibitory constants, the following fluorogenic substrates were used at final concentration of 50 μM: Z-Gly-Gly-Arg-AMC (for human uPA, murine uPA, human tPA, murine tPA, human trypsin, human thrombin and human factor XIIa; Bachem, Bubendorf, Switzerland), Z-Phe-Arg-AMC (for human plasma kallikrein; Bachem, Bubendorf, Switzerland) and H-D-Val-Leu-Lys-AMC (for human plasmin; Bachem, Bubendorf, Switzerland). The initial velocities were monitored as changes in fluorescence intensity during 30 min on a Tecan microplate reader (Tecan infinite 200 pro, Tecan Trading AG, Switzerland) using black microfluor 96-well plate Nunc MicroWell (Thermo Fisher Scientific, Dreieich, Germany). The enzymatic reactions were performed at 25 °C under shacking with an excitation wavelength of 355 nm and an emission recording at 460 nm.
Apparent equilibrium constants Kiapps values were determined by non-linear regression analyses of Vi/V0 versus [I]0 using equation (2). The final Kis were subsequently determined by correcting for the competitive effect of the substrate [S]0 using equation (3). The kinetic constants Kms for the hydrolysis of fluorogenic substrate, catalysed by each protease, were determined by standard Michaelis-Menten equation. Values were determined using either OriginPro 8G software (OriginLab Corporation, Northamppton, MA, USA) or GraphPad Prism 8.0.0. software (GraphPad software, Inc., San Diego, California). […]

T2 sequence (P06869 180-433 limits assumed): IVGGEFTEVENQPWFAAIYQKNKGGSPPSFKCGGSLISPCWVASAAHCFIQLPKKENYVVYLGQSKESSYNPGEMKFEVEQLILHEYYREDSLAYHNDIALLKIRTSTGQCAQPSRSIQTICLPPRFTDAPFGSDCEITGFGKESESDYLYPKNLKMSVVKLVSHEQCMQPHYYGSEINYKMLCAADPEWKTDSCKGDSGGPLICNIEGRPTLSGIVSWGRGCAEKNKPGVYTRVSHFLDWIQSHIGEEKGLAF
T2 sequence (P06869 157-178 partner limits assumed): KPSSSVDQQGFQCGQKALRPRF

| Compound | Ki |
| --- | --- |
| CC(C)[C@@H]1NC(=O)CNC(=O)[C@@H]2CSCc3cc(cc(c3)CSC[C@@H](C(=O)NCC(N)=O)NC(=O)[C@H](CCC(=O)O)NC(=O)[C@H](CO)NC(=O)[C@@H]3CCCN3C(=O)[C@H](CC(=O)O)NC1=O)CSC[C@H](NC(=O)[C@H](C)N)C(=O)N[C@@H](CC(N)=O)C(=O)N[C@@H](CO)C(=O)N[C@@H](CCCCN)C(=O)N[C@@H](Cc1ccccc1)C(=O)N[C@@H](CO)C(=O)NCC(=O)N2 [UK978] (H-ACNSKFSGCGVDPSECG-NH2; linker 2-9-16 via TBMB) | 1700 nM |
